Source: patent US8524214B2, “Polyal drug conjugates comprising variable rate-releasing linkers” (Mersana Therapeutics, Inc., priority 2009, dated 2013)
Like-named read-outs stand apart in the source and are kept apart here.

Columns and labels:
[1] = test system: HT-29 cells; assay: Inhibitory effect on cell growth (MTT assay), HT-29 cells; format: cell-based
Experimental: Using HT-29 cells, the effect of the polyal-SN38 conjugates on cell growth was evaluated.
(§1) Cells are grown in McCoy's 5a medium with 1.5 mM L-glutamine supplemented with 10% FBS.

[2] = test system: HCT116; assay: Inhibitory effect on cell growth, HCT116 cells; format: cell-based, human
Experimental: as §1

[3] = pH 7.4
[4] = Homo sapiens, HT-29, HT29, growth inhibition 72 hours post treatment, MTT

With CC[C@@]1(O)C(=O)OCc2c1cc1n(c2=O)Cc2cc3ccccc3nc2-1 [Camptothecin (CPT), Camptothecin] as the molecule, how does the IC50 [1, 4] read?
Its IC50 is 83 nM.

What about the IC50 ([2]; Homo sapiens, HCT-116) of the same molecule?
Its IC50 is 23 nM.

With CCc1c2c(nc3ccc(OC(=O)N4CCC(N5CCCCC5)CC4)cc13)-c1cc3c(c(=O)n1C2)COC(=O)[C@]3(O)CC [Irinotecan] as the molecule, how does the IC50 [1, 4] read?
Its IC50 is 4430 nM.

What about the IC50 ([2]; Homo sapiens, HCT-116) of the same molecule?
Its IC50 is 4650 nM.

With CCc1c2c(nc3ccc(O)cc13)-c1cc3c(c(=O)n1C2)COC(=O)[C@]3(O)CC [SN38] as the molecule, how does the IC50 ([1]; read-out: HT29 IC50) read?
The IC50 was 25 nM.

What about the IC50 [2] of the same molecule?
The IC50 was 9 nM.

With PHF-GA-Ala-SN38 [Conjugate S4] as the molecule, how does the “Release half-lives of SN38 conjugates, T½” value (“Release half-lives” below) [3] read?
Its value is 54.2 h.

For PHF-GA-Gly-SN38 [Conjugate S2], which “Release half-lives” value [3] is on record?
Its value is 18.5 h.

For PHF-SA-Ala-SN38 [Conjugate S3], which “Release half-lives” value [3] is on record?
Its value is 36.9 h.

For PHF-SA-Gly-SN38 [Conjugate S1], which “Release half-lives” value [3] is on record?
The value was 2.0 h.
